System: LOX IMVI viability, ATP luminescence, 8/24/48 h
Experiment: cytotoxicity in LOX IMVI melanoma cells – cell-based, CellTiter-Glo ATP luminescence, 8/24/48 h, dry powder, HRAS target identification, dose response (AID 720602)

Row | Structure (SMILES) | AC50 (measured here: AC50 at 8 h) | AC50 (measured here: AC50 at 24 h) | AC50 (measured here: AC50 at 48 h)
1 | C#CCCCC(=O)NCCOCCOCCOc1ccc(N(C(=O)CCl)C(C(=O)NCCc2ccccc2)c2cccs2)cc1Cl (stereo not given) | 193 nM | 146 nM | 2640 nM
2 | COc1ccc(N(C(=O)CCl)C(C(=O)NCCc2ccccc2)c2cccs2)cc1Cl (stereo not given) | 21 nM | 25.9 nM | 122 nM
3 | Cc1onc(C(=O)N2CCN(C(c3ccc(Cl)cc3)c3ccc(Cl)cc3)CC2)c1[N+](=O)[O-] | 60 nM | 36.6 nM | 499 nM
4 | COC(=O)c1ccc([C@@H]2c3[nH]c4ccccc4c3C[C@@H](C(=O)OC)N2C(=O)CCl)cc1 | 15.7 nM | 10.1 nM | 187 nM
5 | CC(C)(C)OC(=O)NCCOCCOCCOc1ccc(N(C(=O)CCl)C(C(=O)NCCc2ccccc2)c2cccs2)cc1Cl (stereo not given) | 43.5 nM | 34.2 nM | 390 nM
